Legend:
[1] = molecular target: T1, lysosomal β-galactosidase (Homo sapiens, UniProt P16278); experiment: Loading and intracellular hydrolysis in intact human skin fibroblasts in culture (fluorescence scanning of 96-well plates, fluorescence microscopy); format: cell-based
T1 sequence (P16278 29-677): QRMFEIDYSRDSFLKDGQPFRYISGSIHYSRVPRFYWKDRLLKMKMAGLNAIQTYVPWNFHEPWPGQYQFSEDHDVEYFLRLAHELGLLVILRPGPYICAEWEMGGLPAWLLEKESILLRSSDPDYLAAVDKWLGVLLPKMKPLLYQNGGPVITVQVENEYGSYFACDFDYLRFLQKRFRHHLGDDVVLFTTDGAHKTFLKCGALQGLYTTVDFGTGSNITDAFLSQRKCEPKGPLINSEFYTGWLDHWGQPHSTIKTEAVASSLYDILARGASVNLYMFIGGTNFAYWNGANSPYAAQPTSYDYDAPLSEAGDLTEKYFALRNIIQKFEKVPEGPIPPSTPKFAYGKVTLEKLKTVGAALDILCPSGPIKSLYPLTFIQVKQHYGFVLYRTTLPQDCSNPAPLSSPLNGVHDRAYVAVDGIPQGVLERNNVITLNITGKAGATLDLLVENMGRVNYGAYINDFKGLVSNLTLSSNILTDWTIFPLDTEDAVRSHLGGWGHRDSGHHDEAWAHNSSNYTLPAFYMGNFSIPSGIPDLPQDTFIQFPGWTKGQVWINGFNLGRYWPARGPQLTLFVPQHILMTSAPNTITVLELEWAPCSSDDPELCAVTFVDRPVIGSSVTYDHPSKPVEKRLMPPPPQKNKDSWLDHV
Procedure: Loading of Im-DCH-β-Gal(OAc)., 4, into human skin fibroblasts in culture was accomplished as follows. A 20 mM solution of 4 in ethanol was injected via syringe into McCoy's medium to give a 0.1 mM final concentration of fluorogenic substrate. The substrate was further dispersed in the medium by sonication with a W140 Sonifier (two 10 second pulses on power setting of 3). After incubation for 24 hours in serum-free McCoy's medium, cells were loaded with 4 by replacement of the medium with medium containing 0.1 mM substrate. Excess Im-DCH-β-Gal(OAc) may be removed by rinsing the cells, after which the cells may be further incubated in serum free McCoy's medium. […] Excitation (Xenon lamp) through a 360 nm bandpass filter with 10% transmittance at 310 and 385 nm. Emission through a chromatic beam splitter mirror that transmits fully above 405 nm plus a long pass filter with a transmittance of 1% at 408 nm and 10% at 412 nm. Enzymatic hydrolysis was followed by scanning of the loaded cells in a 96-well tissue culture plate with a Dynatech Microfluorometer. Quantitation of product formation was achieved by comparison of the fluorescence generated within individual wells with a standard curve that was obtained from known concentrations of the fluorescent product, 3.
Decreased activity was measured in GM1 cells (12-16% of normal) by fluorescence scanning of 96-well plates. […] In contrast, normal cells are nonfluorescent 24 hours after loading, having hydrolysed their substrate and released the fluorescent product into the media.

β-galactosidase = experiment: Cell-free systems that have β-galactosidase activity; format: biochemical
[2] = molecular target: T1, lysosomal β-galactosidase; experiment: In vitro hydrolysis of the fluorogenic substrate by fibroblast lysates; format: biochemical
Procedure: The ability of 5 to serve as a fluorogenic substrate was tested using fibroblasts derived from patients with GM1 gangliosidosis, a hereditary deficiency of lysosomal β-galactosidase.

[3] = Fluorescence properties of Im-DCH and its galactoside; format: physicochemical; settings: excitation at 365 nm, detection at 460 nm
Excerpt: (§1) Two other advantages of the fluorophors of the present invention derive from their physical and optical properties: (1) The low pKa of the phenol in Im-DCH (pKa-5.6) allows the maximal fluoroscence (excitation at 385 nm, detection at 460 nm) to be generated at physiological pH values as well as the low pH conditions within lysosomes. The extremely low pKa of the excited state of Im-DCH (pKa*=0.5) permits strong fluorescence to be measured in solutions as acidic as pH 2-3. By proper choice of spectral parameters (excitation at 365 nm, detection at 460 nm), the fluorescence becomes essentially independent of pH, with a fluorescence intensity at pH 2 that is 60% of the maximum. Ratio measurements of fluorescence (emission at 460 nm with excitation at 365 and 385 nm) also provide an estimate of the pH at the site of enzymatic hydrolysis. (2) Shifts in both the absorption and emission spectra occur upon the hydrolysis of glycosides of Im-DCH to give free Im-DCH. This permits the detection of small amounts of enzymatic hydrolysis in the presence of a very large excess of substrate. For example, at 385 nm excitation and 460 nm detection, the ratio of fluoroescence of the hydrolysis product, Im-DCH, to intact Im-DCH-β-Gal is 620:1. […] It is then deacetylated intracellularly to generate the enzymatically active substrate.

[4] = pKa of the Im-DCH fluorophor (imidazole moiety, phenol, excited state); format: physicochemical
Excerpt: This term refers to moderately basic amines that concentrate (via acid-base equilibria) in low pH organelles such as lysosomes. For Im-DCH in compounds 4 and 5, the N-alkyl imidazole moiety, with a pKa of approximately 7, serves this function. This lysosomotropic property accounts for a first important attribute of enzyme substrates based upon Im-DCH that is, concentration within lysosomes to ensure that sufficient substrate is concentrated within the lysosomes in order to yield a readily detectable fluorescent signal.
as §1

## CC(=O)OC[C@H]1O[C@@H](Oc2ccc(OCCCCn3ccnc3)c(C#N)c2C#N)[C@H](OC(C)=O)[C@@H](OC(C)=O)[C@H]1OC(C)=O [Compound 4, β-D-galactopyranoside of 2,3-dicyano-4-[4-(1-imidazolyl)-butoxy]-phenol-2,3,4,6-tetra-O-acetate]
[1]; GM1 cells, fluorescence scanning of 96-well plates
  hydrolysis activity in intact GM1 cells relative to normal: 12-16 % of normal
[1]; GM1 fibroblasts, fluorescence microscopy
  intracellular localization of fluorescence in GM1 fibroblasts: initial perinuclear clustering followed within 24 hours by sequestration into vacuoles
[1]; comparison with cell lines expressing other lysosomal storage disorders
  specificity of the impaired hydrolysis in GM1 gangliosidosis lines: specific for their lysosomal β-galactosidase deficiency
[1]; human skin fibroblasts, 0.1 mM substrate
  uptake by intact fibroblasts: taken up by intact fibroblasts
[1]; normal fibroblasts, 24 hours after loading
  fluorescence of normal cells after loading: nonfluorescent
β-galactosidase
  activity as a substrate in cell-free systems: inactive

## N#Cc1c(OCCCCn2ccnc2)ccc(O[C@@H]2O[C@H](CO)[C@H](O)[C@H](O)[C@H]2O)c1C#N [Compound 5, β-D-galactopyranoside of 2,3-dicyano-4-[4-(1-imidazolyl)-butoxy]-phenol]
[2]; lysates from four GM1 gangliosidosis fibroblast lines
  hydrolysis activity in GM1 gangliosidosis lysates relative to normal: 0.3-5.3 % of normal activity
[2]; lysates from three normal fibroblast lines
  hydrolysis by lysates from normal fibroblasts: hydrolysed rapidly

## Cl.N#Cc1c(O)ccc(OCCCCn2ccnc2)c1C#N [Compound 3, 2,3-dicyano-4-[4-(1-imidazolyl)-butoxy]-phenol hydrochloride salt]
[3]
  fluorescence intensity at pH 2 relative to the maximum: 60%
[4]
  pKa of the phenol: 5.6
[4]; excited state
  pKa of the excited state (pKa*): 0.5
[4]; lysosomotropic amine moiety of Im-DCH in compounds 4 and 5
  pKa of the N-alkyl imidazole moiety: approximately 7

— patent publication US5089392A, “Fluorogenic substrates for measurement of lysosomal enzyme activities within intact cells” (The United States of America as represented by of the …, priority 1990, dated 1992)
